Measured values reported in patent US7517644B1, “Method and compositions for cellular reprogramming” (priority 1991, dated 2009).

What was measured:
[1] = tested on: AML blast cells freshly obtained from patients; assay: junD ODN on fresh AML blasts: suspension culture viable counts and blast colony assay; assay type: cell-based, human; details: 7 days incubation, suspension culture viable cell counts
Description: In the initial tests, the H(1)junD oligo or a control ODN were incubated with AML blast cells for seven days. The blast cells were freshly obtained from patients with AML and were cultured and evaluated for ODN effects as described by Bayever et al.(Leukemia and Lymphoma 12: 223-231, 1994). In brief, after the incubation with ODNs, the blast cells were then washed, and adjusted to 10^5 cells per ml and continued in culture for several more days. Viable cell counts were performed every 2-3 days on suspension cultures and oligo-treated blast cells were plated in the “blast colony assay” to determine the effects of the ODNs on the leukemic stem cells.

8226/Dox cells = assay: sensitization of P-glycoprotein-expressing drug-resistant cells to vincristine (Table XVII); assay type: cell-based, human; details: for Fold increase in Drug Sensitivity: 8226/Dox6 cells, versus media control; for sensitization to vincristine: P-glycoprotein-expressing drug-resistant 8226/Dox
Description: To determine relative activity among the various MDR1 antisense ODNs, they were incubated at several different ODN concentrations in cell culture medium with the human multiple myeloma cell lines 8226/Dox4 or 8226/Dox6 (gifts of Dr. William Dalton, University of Arizona Cancer Center, Tucson) (Dalton et al., Cancer Res. 46: 5125, 1986). Specifically, the human myeloma cells were incubated with the antisense ODNs for four (4) days, in a humidified, 5% CO2 atmosphere containing a reduced oxygen level of 5%, maintained by purging the culture incubator with nitrogen gas in place of ambient room air. Addition of an antioxidant to the cultures during exposure of the cells to the ODN further reduces the effects of the free radicals induced by the ODNs on cells (this effect can include increased expression of MDR1). The cell cultures were then incubated with a chemotherapeutic anti-cancer agent overnight (15-18 hrs), after which the cell cultures were washed repeatedly and then seeded into 96-well microtest plates to permit quantitative analysis of their growth. Tritiated-thymidine was added to these cultures for 18-hrs prior to termination of the assays on day 4 following exposure to the anticancer agents. Each test combination of cells, antisense ODN and anti-cancer agent was run in quadruplicate replicates.

[2] = tested on: DU-145 prostate cancer cells; assay: sensitization of MRP-expressing prostate cancer cells to drug (Table XVII); assay type: cell-based, human
[3] = tested on: drug-sensitive (parent) cancer cell lines; assay: drug sensitization of drug-sensitive (parent) cancer cell lines (Table XVII); assay type: cell-based, human
Description: The enhanced reduction in P-glycoprotein expression due to the combined antisense and aptameric-like effects likely causes the associated reduction in cell proliferation. It has been previously shown that treating P-glycoprotein-expressing cells with monoclonal antibodies capable of binding to and blocking P-glycoprotein function leads to a substantial reduction in the proliferation of the treated cells. […] The term “aptameric-like” is used because the effect seen is seen with some sequences but not others (aptameric); aptameric-like effects are substantially more common among ODN sequences than are the usual aptameric effects. […] In general, this situation in which the antisense and an aptameric-like effect of an ODN both act to reduce expression of the same gene (e.g., MDR1) can be expected to be a very uncommon finding among antisense ODN therapeutics directed to other gene targets. […]

ovarian carcinoma = assay: anticancer effect of junD ODN on solid tumors; assay type: cell-based

Row | Substance | antileukemic effect [1] | Fold increase in Drug Sensitivity (8226/Dox cells) | sensitization to vincristine (8226/Dox cells) | sensitization to chemotherapeutic agent ([2]; DU-145, express MRP and not P-glycoprotein) | Fold increase in Drug Sensitivity ([2]; DU-145 cells, versus media control) | drug sensitization of drug-sensitive lines [3] | Fold increase in Drug Sensitivity ([3]; 8226/sensitive parent cells, versus media control) | anticancer effects on solid tumors (ovarian carcinoma) | cytotoxic or anticancer growth-inhibitory effect on malignant cell lines (malignant cell lines)
1 | H(1)junD: junD antisense ODN, GTCGGCGTGG TGGTGA (antisense GTCGGCGTGGTGGTGA; DNA, backbone and methylation of C not given here; listed as Homo sapiens) | as great or a greater antileukemic effect than OL(1)p53 | 500 | sensitize | sensitize | 19 | minimal sensitizing potential | 3 | anticancer effects | less of a cytotoxic or anticancer growth-inhibitory effect
2 | H(2)junD: junD antisense ODN, GCTCGTCGGC GTGGTGGTGA (antisense GCTCGTCGGCGTGGTGGTGA; DNA, backbone and methylation of C not given here; listed as Homo sapiens) |  | 1091 | sensitize |  |  |  |  |  | less of a cytotoxic or anticancer growth-inhibitory effect
